According to patent US20240091203A1, “METHODS FOR TREATING NON-OBSTRUCTIVE HYPERTROPHIC CARDIOMYOPATHY” (Cytokinetics, Incorporated, priority 2022, published 2024):
“Also recorded” adds a separate entry of the source.

Key:
[1] = test system: patients with symptomatic non-obstructive HCM (nHCM) or HCM with MVO; test: Phase 2 trial (Example 2): safety and tolerability; conditions: for Patients with fatal TEAEs: not related
Description: The study excluded patients receiving disopyramide. […] Overall, the treatment duration was 10 weeks with a 4-week follow-up period after the last dose.
Patients were eligible to be included in the study only if all the following criteria apply: 1. Able to comprehend and willing to sign an informed consent form (ICF) and willing to comply with all study procedures and restrictions for the duration; 2. Males and females between 18 and 85 years of age at screening; 3. Body weight is ≥45 kg at screening; 4. Diagnosed with HCM per the following criteria: (a) has LV hypertrophy and non-dilated LV chamber in the absence of other cardiac disease; and (b) has minimal wall thickness ≥15 mm (minimal wall thickness ≥13 mm is acceptable with a positive family history of HCM or with a known disease-causing gene mutation); 5. Adequate acoustic windows for echocardiography; 7. Left ventricular ejection fraction (LVEF) ≥60% at screening; 8. New York Heart Association (NYHA) Class II or III at screening; 9. Patients on beta-blockers, verapamil, diltiazem, or ranolazine should have been on stable doses for ≥4 weeks and anticipate remaining on the same medication regimen during the study; 10. […] Able to complete all screening procedures.
Patients were excluded from the study if any of the following criteria applied: 1. Aortic stenosis or fixed subaortic obstruction; 2. Known infiltrative or storage disorder causing cardiac hypertrophy that mimics HCM (e.g., Noonan syndrome, Fabry disease, amyloidosis); 3. […] Documented history of current obstructive coronary artery disease (>70% stenosis in one or more epicardial coronary arteries) or documented history of myocardial infarction; 6. […] Has any ECG abnormality considered by the investigator to pose a risk to patient safety (e.g., second degree atrioventricular block type II); 9. Paroxysmal atrial fibrillation or flutter documented during the screening period; 10. […] Currently participating in another investigational device or drug study or received an investigational device or drug <1 month (or 5 half-lives for drugs, whichever is longer) prior to screening; 20.
Each patient received Dose 1 once daily for 2 weeks. […] Otherwise, the patient remained on Dose 1. If LVEF was <50% at Week 2, treatment was discontinued.
Otherwise, the patient remained on the same dose. If LVEF was <50% at Week 4, the patient returned to a prior dose level or treatment was discontinued if the patient was on Dose 1.
If LVEF was <50% at Week 6, the patient was down-titrated to a prior dose level or discontinued if the patient was on Dose 1.
Primary safety endpoints were: (i) patient incidence of reported AEs from first dose up to safety follow-up; (ii) patient incidence of reported SAEs from first dose up to safety follow-up; (iii) patient incidence of LVEF <50% from first dose up to safety follow-up.
Safety follow-up was defined as 4 weeks following the last dose.

[2] = test system: patients with symptomatic non-obstructive HCM (nHCM) or HCM with MVO; test: Phase 2 trial (Example 2): cardiac biomarkers NT-proBNP and hs-cTnI; type: in vivo, human
Procedure: Echocardiograms obtained on day 1 of treatment, at weeks 2, 4, 6, and 10 of treatment, and two weeks after the last dose were analyzed for several key structural and physiologic metrics; measurements of N-terminal prohormone of brain natriuretic peptide (NT-proBNP), and cardiac troponin I were also monitored. Ambulatory cardiac monitoring was conducted one week before day 1 of treatment and at week 9.
The exploratory PD endpoints included but were not limited to: (i) The relationship of plasma concentration ranges of CK-3773274 to LVEF, LVFS, global longitudinal strain (GLS); (ii) Observed values and change from baseline in the echocardiography parameters described in Table 13 and evaluated by the core laboratory during treatment at Weeks 2, 4, 6, 10, and 12; (iii) Change in NT-proBNP from baseline to Week 10; (iv) Change in hs-cTnI from baseline to Week 10; (v) Proportion of patients with LVEF ≥50% and ≥50% reduction from baseline NT-proBNP.
For select PD measurements with statistical distributions likely to depart from normal, proportional change from baseline was evaluated.

[3] = number of patients, N = 41, interim
[4] = end of treatment (week 10), second interim

## CCc1nc(-c2ccc3c(c2)CC[C@H]3NC(=O)c2cnn(C)c2)no1 [aficamten, (R)—N-(5-(5-ethyl-1,2,4-oxadiazol-3-yl)-2,3-dihydro-1H-inden-1-yl)-1-methyl-1H-pyrazole-4-carboxamide]
[1]; 4 of 41 patients including one death, second interim
  patients who experienced SAEs: 9.8%
[1]; 10 weeks, nHCM patients
  overall tolerability: well-tolerated overall
[1]; Week 10 (EOT), 3 of 41 patients
  patients with LVEF <50%: 7.3%
[1]; by Week 12 (2 weeks' washout)
  recovery of LVEF in patients with LVEF <50%: All 3 patients returned to baseline LVEF; also recorded: All LVEF returned to normal
[1]; interim
  AEs of heart failure: No AEs of heart failure
  drug discontinuations due to AE: no drug discontinuations
  relatedness of SAEs (bronchitis, new onset atrial fibrillation, cardiac arrest) per Investigator: None of these were deemed related to aficamten
[1]; [3]
  Patients reporting at least one TEAE: 27
  Patients with AEs related to study drug (per Investigator): 4
  Patients with Moderate TEAEs: 14
  Patients with Severe TEAEs: 3
  Patients with fatal TEAEs: 1
[1]; percent of N = 41, interim
  Patients with AEs related to study drug (per Investigator): (9.8) %
  Patients with Moderate TEAEs: (34) %
  Patients with Severe TEAEs: (7.3) %
  Patients with TESAEs: (7.3) %
  Patients with fatal TEAEs: (2.4) not related %
[1]; second interim
  attribution of SAEs: None of the SAEs were attributed to aficamten
  events with LVEF <40%: no events with LVEF <40%; also recorded: No LVEF <40% occurred
  treatment interruptions or down-titration events related to LVEF <50%: no treatment interruptions or down-titration events
[1]; week 9, interim
  patients with dose reduction to 10 mg for AE fatigue: One patient
[1]; weeks 0-6, interim
  LVEF <50% during the titration period: no LVEF were less than 50%
[2]; 7 patients with MVO, second interim
  symptoms, NT-proBNP and hs-Troponin I in patients with mid-ventricular obstruction (MVO): All patients in this subgroup showed symptom improvement and reduction in both NT-proBNP and hs-Troponin I levels
[2]; after the 2-week washout
  cardiac biomarkers (NT-proBNP, hs-cTnI) after washout: rebounded upwards off drug
[2]; end of treatment (week 10), interim, p<0.0001
  reduction of NT-proBNP (geometric mean, proportional change from baseline): 56%
[2]; end of treatment (week 10), interim, p<0.05
  reduction of hs-cTnI (proportional to baseline): 21%
[2]; [4]
  mean (SE) reduction of NT-proBNP: -870 pg/mL
  mean (SE) reduction of hs-cTnI: -24.8 ng/L
[2]; end of treatment (week 10), second interim, p<0.0001
  reduction of NT-proBNP: 55%
[2]; end of treatment (week 10), second interim, p<0.05
  reduction of hs-cTnI: 21%
